Reference: article PMC8187479, “Sugar phosphate activation of the stress sensor eIF2B” (Nature Communications, 2021)

Biological target: T1, eIF2Bα (Homo sapiens, UniProt Q14232)
T1 construct: made in house; host or cells: E. coli BL21(DE3)
T1 sequence (Q14232 1-305): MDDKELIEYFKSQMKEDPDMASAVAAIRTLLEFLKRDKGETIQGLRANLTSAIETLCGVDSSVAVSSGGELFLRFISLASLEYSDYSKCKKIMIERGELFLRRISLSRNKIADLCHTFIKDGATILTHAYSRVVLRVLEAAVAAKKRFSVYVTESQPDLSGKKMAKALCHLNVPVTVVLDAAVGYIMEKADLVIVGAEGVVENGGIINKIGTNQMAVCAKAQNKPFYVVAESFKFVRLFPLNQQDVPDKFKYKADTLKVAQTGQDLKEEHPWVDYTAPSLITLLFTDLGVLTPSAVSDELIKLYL
Assay: MIDAS (mass spectrometry integrated with equilibrium dialysis) metabolite binding screen
Conditions: MIDAS metabolite binding screen with eIF2Bα; sheet "eIF2Ba"
Protocol: Metabolites were combined into four defined screening pools. […] To the reverse side, 300 μL of 50 μM per metabolite pool was aliquoted and sealed (metabolite chamber). Loaded dialysis plates were placed in the dark at 4 °C on a rotating shaker (120 rpm) and incubated for 40 h. Post-dialysis, metabolites were isolated from each chamber by cold methanol extraction. Each sample was analyzed in technical triplicate by FIA-MS on a SCIEX X500R QTOF MS with interspersed blanks injections. The input metabolite pools were assayed at the beginning, middle, and end of each MS method batch for QC and normalization.
MIDAS FIA-MS spectra were processed in SCIEX OS 1.6 software to determine metabolite abundances by integrating the mean area under the curve for each extracted ion chromatogram. For each dialysis replicate, log2(fold change) for each metabolite was calculated as the difference between the log2 abundance in the protein chamber and metabolite chamber. For each technical triplicate, up to one outlier was removed using a z-score cutoff of five (<0.1% of observations). The corrected technical replicates were collapsed to one mean fold-change summary per protein-metabolite pair. To remove fold-change variation that was not specific to a given metabolite-protein pair, the first three principal components of the total screening dataset were removed on a per metabolite pool basis by subtracting the projection of the first 3 principal components, creating log2(corrected fold change). Protein-metabolite z-scores were determined by comparing the target protein-metabolite log2(corrected fold change) to a no-signal model for that metabolite using measures of the central tendency (median) and standard deviation (extrapolated from the 25–75% quantiles), which are robust to the signals in the tails of a metabolite’s fold-change distribution. Z-scores were false-discovery rate controlled using Storey’s q-value (qvalue, R) and protein-metabolite interactions with q-values < 0.1 were considered significant.

| log2(corrected fold change) | SMILES |
| --- | --- |
| 0.01224 | Nc1nc2c(ncn2[C@@H]2O[C@@H]3COP(=O)(O)O[C@H]3[C@H]2O)c(=O)[nH]1 [Cyclic GMP] |
| 0.01963 | NCCS [Cysteamine] |
| 0.02612 | Nc1ccn([C@@H]2O[C@H](COP(=O)(O)OP(=O)(O)O)[C@@H](O)[C@H]2O)c(=O)n1 [Cytidine 5-diphosphate] |
| -0.000615 | C[N+](C)(C)CCOP(=O)(O)OP(=O)([O-])OC[C@H]1O[C@@H](n2ccc(N)nc2=O)[C@H](O)[C@@H]1O [Cytidine 5-diphosphocholine] |
| 0.04784 | Nc1ccn([C@@H]2O[C@H](COP(=O)(O)OP(=O)(O)OP(=O)(O)O)[C@@H](O)[C@H]2O)c(=O)n1 [Cytidine 5-triphosphate] |
| -0.01209 | O=C(O)[C@@H](O)[C@H](O)[C@H](O)CO [D-Arabinonic acid] |
| 0.006339 | OC[C@@H](O)C(O)[C@H](O)CO [D-Arabitol] |
| -0.03103 | OC[C@H]1O[C@@H](O[C@H]2[C@H](O)[C@@H](O)[C@H](O)O[C@@H]2CO)[C@H](O)[C@@H](O)[C@@H]1O [D-Cellobiose] |
| -0.005422 | N[C@H]1C(O)O[C@H](COP(=O)(O)O)[C@@H](O)[C@@H]1O (stereo partly drawn) [D-Glucosamine 6-phosphate] |
| -0.01884 | O=C[C@H](O)[C@@H](O)[C@H](O)[C@H](O)C(=O)O [D-Glucuronic acid] |
| 0.01187 | O=C1O[C@H]2[C@H](OC(O)[C@@H]2O)[C@@H]1O (stereo partly drawn) [D-Glucurono-6,3-lactone] |
| -0.02892 | O=C[C@H](O)CO [D-Glyceraldehyde] |
| -0.0058 | O=C(O)CC[C@@H](O)C(=O)O [D-Hydroxyglutaric acid] |
| -0.01671 | C[C@@H](O)C=O [D-Lactaldehyde] |
| -0.002139 | OC[C@H]1O[C@@H](O[C@H]2[C@H](O)[C@@H](O)[C@H](O)O[C@@H]2CO)[C@H](O)[C@@H](O)[C@H]1O [D-Lactose] |
| -0.0302 | CC(C)C[C@@H](O)C(=O)O [D-Leucic acid] |
| -0.003614 | OC[C@H]1O[C@H](O[C@H]2[C@H](O)[C@@H](O)[C@H](O)O[C@@H]2CO)[C@H](O)[C@@H](O)[C@@H]1O [D-Maltose] |
| -0.01874 | OC[C@H]1OC(O)[C@@H](O)[C@@H](O)[C@@H]1O (stereo partly drawn) [D-Mannose] |
| -0.02977 | OC[C@H]1O[C@H](OC[C@H]2O[C@H](O[C@]3(CO)O[C@H](CO)[C@@H](O)[C@@H]3O)[C@H](O)[C@@H](O)[C@@H]2O)[C@H](O)[C@@H](O)[C@H]1O [D-Raffinose] |
| -0.01312 | O=C(CO)[C@@H](O)[C@H](O)[C@H](O)[C@H](O)COP(=O)(O)O [D-Sedoheptulose 7-phosphate] |
| -0.04824 | N[C@H](CO)C(=O)O [D-Serine] |
| -0.02052 | OC[C@H]1O[C@H](O[C@H]2O[C@H](CO)[C@@H](O)[C@H](O)[C@H]2O)[C@H](O)[C@@H](O)[C@@H]1O [D-Trehalose] |
| -0.0769 | O=C(CO)[C@@H](O)[C@H](O)CO [D-Xylulose] |
| -0.0058 | O=C(O)CC[C@@H](O)C(=O)O [D-alpha-Hydroxyglutaric acid] |
| 0.01388 | O=C(O)[C@@H](O)[C@H](O)[C@H](O)[C@@H](O)C(=O)O [D-galactaric acid] |
| 0.004891 | CCCCCCCCCC(=O)O [Decanoic acid] |
| 0.003317 | O=C1OC(C(O)CO)C(=O)C1=O (centres unmarked) [Dehydroascorbic acid] |
| -0.0746 | Nc1ncnc2c1ncn2[C@H]1C[C@H](O)[C@@H](COP(=O)(O)O)O1 [Deoxyadenosine monophosphate] |
| -0.0001501 | Nc1ccn([C@H]2C[C@H](O)[C@@H](COP(=O)(O)OP(=O)(O)OP(=O)(O)O)O2)c(=O)n1 [Deoxycytidine triphosphate] |

| SMILES | log2(corrected fold change) |
| --- | --- |
| O=C(O)[C@H](O)[C@@H](O)[C@H](O)[C@H](O)CO [D-Gluconic acid] | -0.01138 |
| OC[C@H]1OC(O)[C@H](O)[C@@H](O)[C@@H]1O (stereo partly drawn) [D-Glucose] | -0.01874 |
| N[C@H](CCC(=O)O)C(=O)O [D-Glutamic acid] | -0.01634 |
| O=C[C@H](O)[C@H](O)[C@H](O)CO [D-Ribose] | -0.0769 |
| O=C(O)[C@@H](O)[C@@H](O)[C@H](O)[C@@H](O)C(=O)O [D-Saccharic acid] | -0.01904 |
| Nc1ncnc2c1ncn2[C@H]1C[C@H](O)[C@@H](COP(=O)(O)OP(=O)(O)O)O1 [Deoxyadenosine diphosphate] | -0.1103 |

Same assay, conditions: MIDAS screen, sheet eIF2Ba; metabolites screened in pools 1-4; p-value and q-value given

| log2(corrected fold change) | SMILES |
| --- | --- |
| 0.2698 | Nc1ccn([C@@H]2O[C@H](CO)[C@@H](O)[C@H]2O)c(=O)n1 [Cytidine] |
| 0.07991 | O=C(O)C(O)COP(=O)(O)O [D-3-Phosphoglyceric acid] |
| 0.03257 | N[C@H](CC(=O)O)C(=O)O [D-Aspartate] |
| -0.09045 | O=C(CO)[C@@H](O)[C@H](O)[C@H](O)CO [D-Fructose] |
| -0.09045 | O=C[C@H](O)[C@@H](O)[C@@H](O)[C@H](O)CO [D-Galactose] |
| 0.1378 | N[C@H]1C(O)O[C@H](CO)[C@@H](O)[C@@H]1O (stereo partly drawn) [D-Glucosamine] |
| 0.09175 | O=C[C@H](O)COP(=O)(O)O [D-Glyceraldehyde 3-phosphate] |
| 0.1183 | O=P(O)(O)OC[C@H](O)CO [D-Glycerol 1-phosphate] |
| -0.05584 | O=C(O)[C@H]1CCCN1 [D-Proline] |
| 0.05676 | OC[C@@H](O)[C@@H](O)[C@H](O)[C@@H](O)CO [D-Sorbitol] |
| -0.01162 | O=C(CO)[C@@H](O)[C@@H](O)[C@H](O)COP(=O)(O)O [D-Tagatose 6-phosphate] |
| -0.1354 | O=C[C@H](O)[C@@H](O)[C@H](O)CO [D-Xylose] |
| 0.3189 | O=C(CO)[C@@H](O)[C@H](O)COP(=O)(O)O [D-Xylulose 5-phosphate] |
| 0.2026 | O=P(O)(O)O[C@@H]1[C@H](O)[C@H](O)[C@@H](OP(=O)(O)O)[C@H](OP(=O)(O)O)[C@H]1O [D-myo-Inositol-1,4,5-triphosphate] |
| 0.08261 | Nc1nc2c(ncn2[C@H]2C[C@H](O)[C@@H](COP(=O)(O)O)O2)c(=O)[nH]1 [Deoxyguanylate] |
| -0.1841 | CC(C)(COP(=O)(O)OP(=O)(O)OC[C@H]1O[C@@H](n2cnc3c(N)ncnc32)[C@H](O)[C@@H]1O)[C@@H](O)C(=O)NCCC(=O)NCCS [Dephosphocoenzyme A] |
| -0.1669 | Nc1ncnc2c1ncn2[C@@H]1O[C@H](COP(=O)(O)OP(=O)(O)OP(=O)(O)OC[C@@H]2O[C@H](n3cnc4c(N)ncnc43)[C@@H](O)[C@H]2O)[C@@H](O)[C@H]1O [Diadenosine triphosphate] |

| SMILES | log2(corrected fold change) |
| --- | --- |
| O=C1OC[C@@H](O)[C@H]1O [D-Erythrono-1,4-lactone] | -0.2396 |
| O=C(COP(=O)(O)O)[C@@H](O)[C@H](O)[C@H](O)COP(=O)(O)O [D-Fructose 1,6-bisphosphate] | -0.7792 |
| O=P(O)(O)OC[C@H]1OC(O)(CO)[C@@H](O)[C@@H]1O (stereo partly drawn) [D-Fructose 6-phosphate] | -0.1344 |
| O=P(O)(O)O[C@H]1O[C@H](CO)[C@H](O)[C@H](O)[C@H]1O [D-Galactose 1-phosphate] | -0.1344 |
| O=P(O)(O)OC[C@H]1O[C@H](OP(=O)(O)O)[C@H](O)[C@@H](O)[C@@H]1O [D-Glucose 1,6-bisphosphate] | -0.7792 |
| O=P(O)(O)O[C@H]1O[C@H](CO)[C@@H](O)[C@H](O)[C@H]1O [D-Glucose 1-phosphate] | -0.1344 |
| O=P(O)(O)OC[C@H]1OC(O)[C@@H](O)[C@@H](O)[C@@H]1O (stereo partly drawn) [D-Mannose 6-phosphate] | -0.1344 |
| O=C1CC[C@H](C(=O)O)N1 [D-Pyroglutamic Acid] | -0.09309 |
| O=P(O)(O)O[C@H]1O[C@H](CO)[C@@H](O)[C@H]1O [D-Ribose 1-phosphate] | 0.3189 |
| O=C[C@H](O)[C@H](O)[C@H](O)COP(=O)(O)O [D-Ribose 5-phosphate] | 0.3189 |
